# Measurements published in patent publication US8785468B2, “Phenylalanine amide derivatives useful for treating insulin-related diseases and conditions” (Amgen Inc., priority 2009, dated 2014).
# pEC50: −log10 of the molar value. Counter-ions that a name gives are not always drawn.
# Target: T1, human receptor found in pancreatic islet cells (Homo sapiens, UniProt Q7Z601)
# T1 sequence (Q7Z601 1-462): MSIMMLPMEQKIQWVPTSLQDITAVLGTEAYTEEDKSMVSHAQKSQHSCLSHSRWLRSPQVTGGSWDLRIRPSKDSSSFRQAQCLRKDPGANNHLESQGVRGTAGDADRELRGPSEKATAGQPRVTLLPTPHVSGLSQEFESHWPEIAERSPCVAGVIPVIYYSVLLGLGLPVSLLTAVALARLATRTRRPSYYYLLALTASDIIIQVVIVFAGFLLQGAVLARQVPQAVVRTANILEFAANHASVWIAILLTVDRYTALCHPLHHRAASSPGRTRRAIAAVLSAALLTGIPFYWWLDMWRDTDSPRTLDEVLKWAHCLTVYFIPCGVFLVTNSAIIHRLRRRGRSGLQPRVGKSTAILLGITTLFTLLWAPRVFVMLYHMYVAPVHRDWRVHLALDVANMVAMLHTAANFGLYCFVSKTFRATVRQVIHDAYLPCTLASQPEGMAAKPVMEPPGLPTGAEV
# Assay: Activation of intracellular IP3 signaling in transfected cells (Activation Assay)
# Type: cell-based
# Settings: calculated from IP3 concentration measurements in cells transfected with the human receptor
# Method: Table 12 provides exemplary compounds that were prepared and assessed, following protocols known to those of skilled in the art, for activation of intracellular inositol trisphosphate (IP3) signaling pathways that lead to elevation of intracellular calcium concentration. EC50 values provided in Table 12 were calculated from IP3 concentration measurements in cells transfected with a human receptor found in pancreatic islet cells, inter alia.
row,pEC50,SMILES
1,7.00 to 7.30,"O=C(Nc1cccc(-c2ccncc2)c1)[C@H](Cc1ccccc1)NCc1cscn1 [Example 34.14, (S)-3-Phenyl-N-(3-(pyridin-4-yl)phenyl)-2-(thiazol-4-ylmethylamino)propanamide]"
2,6.00 to 7.00,"O=C([C@H](Cc1ccccc1)NCc1cscn1)N1CCc2c(-c3nnco3)cc(-c3ccncc3)cc21 [Example 68, (2S)-1-(4-(1,3,4-Oxadiazol-2-yl)-6-(pyridin-4-yl)indolin-1-yl)-3-phenyl-2-(thiazol-4-ylmethylamino)propan-1-one]"
3,6.00 to 7.00,"COc1cc(NC(=O)[C@H](Cc2ccccc2)NCc2cscn2)cc(-c2ccnc(C)c2)n1 [Example 41.6, (2S)—N-(2-Methoxy-6-(2-methylpyridin-4-yl)pyridin-4-yl)-3-phenyl-2-(thiazol-4-ylmethylamino)propanamide]"
4,5.00 to 6.00,"O=C(Nc1cccc(-c2ccncc2)c1)[C@H](Cc1ccccc1)NCC1CCOC1 (stereo partly drawn) [Example 34.11, (2S)-3-Phenyl-N-(3-(pyridin-4-yl)phenyl)-2-((tetrahydrofuran-3-yl)methylamino)propanamide TFA salt]"
5,6.00 to 7.00,"COC(=O)c1cc(-c2ccncc2)cc2c1CCN2C(=O)[C@H](Cc1ccccc1)NCc1cscn1 [Example 54.8, TFA salt]"
6,6.00 to 7.00,"COC(=O)C1CN(Cc2cc(NC(=O)[C@H](Cc3ccccc3)NCc3ccccn3)cc(-c3ccnc(C)c3)c2)C1 [Example 80, Methyl 1-((16S)-3-(2-methylpyridin-4-yl)-5-((S)-3-phenyl-2-(pyridin-2-ylmethylamino)propanamido)benzyl)azetidine-3-carboxylate]"
7,6.00 to 7.00,"O=C(Nc1cc(-c2ccncc2)cc(C(F)(F)C(=O)O)c1)[C@H](Cc1ccccc1)NCc1cscn1 [Example 52, (S)-2,2-difluoro-2-(3-(3-phenyl-2-(thiazol-4-ylmethylamino)propanamido)-5-(pyridin-4-yl)phenyl)acetic acid]"
8,7.00 to 7.30,"CNc1cc(-c2cc(NC(=O)[C@H](Cc3ccc(F)cc3)NCc3nnn[nH]3)n(C)n2)ccn1 [Example 23.11, (2S)-2-((1H-tetrazol-5-yl)methylamino)-3-(4-fluorophenyl)-N-(1-methyl-3-(2-(methylamino)pyridin-4-yl)-1H-pyrazol-5-yl)propanamide]"
9,5.00 to 6.00,"O=C(Nc1cccc(-c2ccncc2)c1)[C@@H](Cc1ccccc1)NCc1cscn1 [Example 34.5, (R)-3-Phenyl-N-(3-(pyridin-4-yl)phenyl)-2-(thiazol-4-ylmethylamino)propanamide trifluoroacetate]"
10,5.00 to 6.00,"CN(C(=O)[C@H](Cc1ccccc1)NCc1cscn1)c1cccc(-c2ccncc2)c1 [Example 34.8, (S)—N-Methyl-3-phenyl-N-(3-(pyridin-4-yl)phenyl)-2-(thiazol-4-ylmethylamino)propanamide]"
11,> 7.30,"Cc1cc(-c2cc(NC(=O)[C@H](Cc3ccc(F)cc3)NCC(=O)O)[nH]n2)ccn1 [Example 21.2, 2-((S)-3-(4-Fluorophenyl)-1-(3-(2-methylpyridin-4-yl)-1H-pyrazol-5-ylamino)-1-oxopropan-2-ylamino)acetic acid dihydrochloride]"
12,> 7.30,"CCn1nc(-c2ccnc(NC)c2)cc1NC(=O)[C@H](Cc1ccc(F)cc1)NCC(=O)O [Example 31.4, 2-((S)-1-(1-Ethyl-3-(2-(methylamino)pyridin-4-yl)-1H-pyrazol-5-ylamino)-3-(4-fluorophenyl)-1-oxopropan-2-ylamino)acetic acid]"
13,> 7.30,"CNc1cc(-c2cc(NC(=O)[C@H](Cc3ccc(F)cc3)NCc3c[nH]nn3)n(C)n2)ccn1 [Example 23.7, (2S)-2-((1H-1,2,3-triazol-4-yl)methylamino)-3-(4-fluorophenyl)-N-(1-methyl-3-(2-(methylamino)pyridin-4-yl)-1H-pyrazol-5-yl)propanamide]"
14,6.00 to 7.00,"COc1ncc(-c2ccncc2)cc1NC(=O)[C@H](Cc1ccccc1)N[C@@H](C)c1ccccn1 [Example 35.2, (S)—N-(2-Methoxy-5-(pyridin-4-yl)pyridin-3-yl)-3-phenyl-2-((S)-1-(pyridin-2-yl)ethylamino)propanamide]"
15,7.00 to 7.30,CC(C)(C)OC(=O)CN[C@@H](Cc1ccc(F)cc1)C(=O)Nc1cccc(-c2ccncc2)c1 [Example 34.4]
16,> 7.30,"Cn1nc(-c2ccncc2)cc1NC(=O)[C@H](Cc1ccccc1)NCc1cscn1 [Example 17.2, (S)—N-(1-Methyl-3-(pyridin-4-yl)-1H-pyrazol-5-yl)-3-phenyl-2-(thiazol-4-ylmethylamino)propanamide]"

row,pEC50,SMILES
1,6.00 to 7.00,"COC(=O)c1cc(-c2ccncc2)cc2c1CCN2C(=O)[C@H](Cc1ccccc1)N[C@@H](C)c1ccccn1 [Example 54.2, Methyl 1-((S)-3-phenyl-2-((S)-1-(pyridin-2-yl)ethylamino)propanoyl)-6-(pyridin-4-yl)indoline-4-carboxylate TFA salt]"
2,5.00 to 6.00,"N[C@@H](Cc1ccccc1)C(=O)Nc1cccc(-c2ccncc2)c1 [Example 34.1.D, (S)-2-Amino-3-phenyl-N-(3-(pyridin-4-yl)phenyl)propanamide]"
3,> 7.30,"O=C(O)CN[C@@H](Cc1ccc(F)cc1)C(=O)Nc1cc(-c2ccncc2)no1 [Example 3.2, (S)-2-(3-(4-Fluorophenyl)-1-oxo-1-(3-(pyridin-4-yl)isoxazol-5-ylamino)propan-2-ylamino)acetic acid]"
4,6.00 to 7.00,"CC(C)(C(=O)O)c1cc(NC(=O)[C@H](Cc2ccc(Cl)cc2)NCc2cscn2)cc(-c2ccncc2)c1 [Example 63.1, (S)-2-(3-(3-(4-Chlorophenyl)-2-(thiazol-4-ylmethylamino)propanamido)-5-(pyridin-4-yl)phenyl)-2-methylpropanoic acid]"
5,6.00 to 7.00,"CNc1nccc(-c2cc(NC(=O)[C@H](Cc3ccc(F)cc3)NCc3cscn3)n(C)n2)n1 [Example 9, (2S)-3-(4-fluorophenyl)-N-(1-methyl-3-(2-(methylamino)pyrimidin-4-yl)-1H-pyrazol-5-yl)-2-(thiazol-4-ylmethylamino)propanamide]"
6,6.00 to 7.00,"O=C(O)c1cc(NC(=O)[C@H](Cc2ccccc2)NCc2nccs2)cc(-c2ccncc2)c1 [Example 45.3, (S)-3-(3-Phenyl-2-(thiazol-2-ylmethylamino)propanamido)-5-(pyridin-4-yl)benzoic acid]"
7,6.00 to 7.00,"COC(=O)c1cc(-c2ccncc2)cc2c1CCN2C(=O)[C@@H](N)Cc1ccccc1 [Example 54.1, (S)-Methyl 1-(2-amino-3-phenylpropanoyl)-6-(pyridin-4-yl)indoline-4-carboxylate]"
8,7.00 to 7.30,"Cc1cc(-c2cc(NC(=O)[C@H](Cc3ccccc3)NCc3cscn3)cc(NS(C)(=O)=O)c2)ccn1 [Example 51.1, (2S)—N-(3-(2-Methylpyridin-4-yl)-5-(methylsulfonamido)phenyl)-3-phenyl-2-(thiazol-4-ylmethylamino)propanamide]"
9,6.00 to 7.00,"Cc1cc(-c2cc(NC(=O)[C@@H](N)Cc3ccc(F)cc3)n(C)n2)ccn1 [Example 16.1.F, (2S)-2-amino-3-(4-fluorophenyl)-N-(1-methyl-3-(2-methylpyridin-4-yl)-1H-pyrazol-5-yl)propanamide]"
10,> 7.30,"CCn1nc(-c2ccncc2)cc1NC(=O)[C@H](Cc1ccc(F)cc1)NCc1cscn1 [Example 20.1, (S)—N-(1-ethyl-3-(pyridine-4-yl)-1H-pyrazol-5-yl)-3-(4-fluorophenyl)-2-(thiazol-4-ylmethlamino)propanamide]"
11,5.00 to 6.00,"O=C(Nc1cccc(-c2ccncc2)c1)[C@@H](Cc1ccccc1)NCc1nccs1 [Example 34.7, (R)-3-Phenyl-N-(3-(pyridin-4-yl)phenyl)-2-(thiazol-2-ylmethylamino)propanamide trifluoroacetate]"
12,> 7.30,"CCn1nc(-c2ccnc(NC)c2)cc1NC(=O)[C@H](Cc1ccc(F)cc1)NCc1c[nH]nn1 [Example 31.2, (2S)-2-((1H-1,2,3-triazol-4-yl)methylamino)-N-(1-ethyl-3-(2-(methylamino)pyridin-4-yl)-1H-pyrazol-5-yl)-3-(4-fluorophenyl)propanamide]"
13,> 7.30,"CNc1cc(-c2cc(NC(=O)[C@H](Cc3ccc(F)cc3)NCc3c[nH]nn3)[nH]n2)ccn1 [Example 18.2, (2S)-2-((1H-1,2,3-triazol-4-yl)methylamino)-3-(4-fluorophenyl)-N-(3-(2-(methylamino)pyridin-4-yl)-1H-pyrazol-5-yl)propanamide]"
14,6.00 to 7.00,"Cn1cc(-c2cccc(NC(=O)[C@H](Cc3ccccc3)NCc3cscn3)c2)cn1 [Example 27, (2S)—N-(3-(1-Methyl-1H-pyrazol-4-yl)phenyl)-3-phenyl-2-(thiazol-4-ylmethylamino)propanamide]"
15,6.00 to 7.00,"COc1ncc(-c2ccnc(C)c2)cc1NC(=O)[C@H](Cc1ccccc1)N[C@@H](C)c1ccccn1 [Example 41.2, (S)—N-(2-Methoxy-5-(2-methylpyridin-4-yl)pyridin-3-yl)-3-phenyl-2-((S)-1-(pyridin-2-yl)ethylamino)propanamide]"
16,6.00 to 7.00,"CC(N[C@@H](Cc1ccccc1)C(=O)Nc1cccc(-c2ccncc2)c1)c1ccccn1 (stereo partly drawn) [Example 34.2, (2S)-3-Phenyl-2-(1-(pyridin-2-yl)ethylamino)-N-(3-(pyridin-4-yl)phenyl)propanamide]"
